Assay results: patent US12077503B2, “Substituted cyclic amides and their use as herbicides” (FMC CORPORATION, priority 2015, dated 2024)

What was measured:
Test in all cases: Test G Pre-Emergence Protocol
Format in all cases: in vivo
Settings in all cases: evaluated after 13 days
[1] = system: barnyardgrass (Echinochloa crus-galli)
Method: (§1) Seeds of corn (Zea mays), giant foxtail (Setaria faberi), barnyardgrass (Echinochloa crus-galli), ivy-leaved morning glory (Ipomoea hederacea), redroot pigweed (Amaranthus retroflexus) and velvetleaf (Abutilon theophrasti) were sown in standard soil in pots. After cultivation for one day under controlled conditions in a glasshouse (at 24/16° C., day/night; 14 hours light; 65% humidity), the plants were sprayed with an aqueous spray solution derived from the formulation of the technical active ingredient in acetone/water (50:50) solution containing 0.5% Tween 20 (polyoxyethylene sorbitan monolaurate, CAS RN 9005-64-5) to give a final dose of 15.625, 62.5 or 250 g/ha of test compound.
(§2) The test plants were then grown on under controlled conditions in a glasshouse (at 24/16° C., day/night; 14 hours light; 65% humidity) and watered twice daily. After 13 days the test was evaluated (100=total damage to plant; 0=no damage to plant). A dash (-) means no test result.

corn (Zea mays) = system: corn (Zea mays)
Method: as §1, §2

[2] = system: giant foxtail (Setaria faberi)
Method: as §1, §2

[3] = system: ivy-leaved morning glory (Ipomoea hederacea)
Method: as §1, §2

[4] = system: redroot pigweed (Amaranthus retroflexus)
Method: as §1, §2

[5] = system: velvetleaf (Abutilon theophrasti)
Method: as §1, §2

[6] = 62.5 g ai/ha, 100=total damage to plant, 0=no damage to plant

Compound	Barnyardgrass damage rating (100=total damage to plant; 0=no damage to plant) ([1]; 250 g ai/ha)	Corn damage rating (100=total damage to plant; 0=no damage to plant) (corn (Zea mays); 15.625 g ai/ha)	Corn damage rating (100=total damage to plant; 0=no damage to plant) (corn (Zea mays); 250 g ai/ha)	Foxtail, Giant damage rating (100=total damage to plant; 0=no damage to plant) ([2]; 15.625 g ai/ha)	Foxtail, Giant damage rating (100=total damage to plant; 0=no damage to plant) ([2]; 250 g ai/ha)	Pigweed, Redroot damage rating (100=total damage to plant; 0=no damage to plant) ([4]; 15.625 g ai/ha)	Pigweed, Redroot damage rating (100=total damage to plant; 0=no damage to plant) ([4]; 250 g ai/ha)	Velvetleaf damage rating (100=total damage to plant; 0=no damage to plant) ([5]; 15.625 g ai/ha)	Velvetleaf damage rating (100=total damage to plant; 0=no damage to plant) ([5]; 250 g ai/ha)	other results
CN1C[C@H](c2ccc(C(F)(F)F)cc2)[C@@H](C(=O)Nc2cccc(F)n2)C1=O [Compound 1400]	80	20	60	60	90	20	90	10	60	Barnyardgrass damage rating (100=total damage to plant; 0=no damage to plant) ([1]; 15.625 g ai/ha): 30; plant damage rating, Barnyardgrass [1, 6]: 80; plant damage rating, Corn (corn (Zea mays); [6]): 40; plant damage rating, Foxtail, Giant [2, 6]: 90; Morning-glory, Ivy-leaved damage rating (100=total damage to plant; 0=no damage to plant) ([3]; 15.625 g ai/ha): 0; plant damage rating, Morningglory, Ivy-leaved [3, 6]: 0; plant damage rating, Pigweed, Redroot [4, 6]: 80; plant damage rating, Velvetleaf [5, 6]: 10
CN1C[C@H](c2cccc(C(F)(F)F)c2)[C@@H](C(=O)Nc2cccnc2F)C1=O [Compound 1397]	90	80	90	90	90	0	80	0	70	pest or weed control at 15.625 g/ha ([1]; Echinochloa crus-galli, pre-emergence, 312 h, 15.625 g ai/ha, read-out: Barnyard grass damage rating (100=total damage to plant; 0=no damage to plant)): 90%; pest or weed control at 62.5 g/ha ([1]; Echinochloa crus-galli, pre-emergence, 312 h, 62.5 g ai/ha, 100=total damage to plant, 0=no damage to plant, read-out: plant damage rating, Barnyardgrass): 90%; plant injury at 62.5 g/ha (corn (Zea mays); Zea mays, pre-emergence, 312 h, 62.5 g ai/ha, 100=total damage to plant, 0=no damage to plant, read-out: plant damage rating, Corn): 80%; pest or weed control at 62.5 g/ha ([2]; Setaria faberi, pre-emergence, 312 h, 62.5 g ai/ha, 100=total damage to plant, 0=no damage to plant, read-out: plant damage rating, Foxtail, Giant): 90%; Morningglory, Ivy-leaved damage rating (100=total damage to plant; 0=no damage to plant) ([3]; 250 g ai/ha): 80; pest or weed control at 15.625 g/ha ([3]; Ipomoea, pre-emergence, 312 h, 15.625 g ai/ha, read-out: Morning-glory, Ivy-leaved damage rating (100=total damage to plant; 0=no damage to plant)): 60%; pest or weed control at 62.5 g/ha ([3]; Ipomoea, pre-emergence, 312 h, 62.5 g ai/ha, 100=total damage to plant, 0=no damage to plant, read-out: plant damage rating, Morningglory, Ivy-leaved): 70%; pest or weed control at 62.5 g/ha ([4]; Amaranthus retroflexus, pre-emergence, 312 h, 62.5 g ai/ha, 100=total damage to plant, 0=no damage to plant, read-out: plant damage rating, Pigweed, Redroot): 20%; pest or weed control at 62.5 g/ha ([5]; Abutilon theophrasti, pre-emergence, 312 h, 62.5 g ai/ha, 100=total damage to plant, 0=no damage to plant, read-out: plant damage rating, Velvetleaf): 10%
